Molecules are shown by their SMILES. Where two headings read alike, the source gives them in different places.

Data set [1] in a line: Sodium fluorescein permeability across iPSC-derived BMEC monolayer on Transwell. The class given is in vitro ADME, human. The note with it: human, 48 h. How it is done:
(§1) Permeability Measurements—Sodium fluorescein (10 μM, 376 Daltons; Sigma) was utilized to determine the permeability of the iPSC-BMEC barrier. Following 48 h of monoculture or co-culture, fresh EC medium was added to the Transwell system, with EC medium containing sodium fluorescein added to the top chamber and EC medium lacking sodium fluorescein added to the bottom chamber. 150 uL aliquots were taken from the bottom chamber at 0, 15, 30, 45, and 60 min, and immediately replaced with pre-warmed EC medium. Permeability coefficients were calculated based on the cleared volume of fluorescein from the top chamber to the bottom chamber.

The next data set has as its system iPSC-derived BMECs. The description is as above. Format: in vitro ADME, human. The following applies: CS03iCTRn2-derived BMECs. How it is done: as §1

Take `O=C1OC2(c3ccc(O)cc3Oc3cc(O)ccc32)c2ccccc21` [sodium fluorescein, Sodium fluorescein]: the Papp at 60 min, 10 μM in data set [1] (IMR90-4 iPSC-derived BMECs co-cultured with EZ-sphere-derived neurons and astrocytes (1:3), read-out: sodium fluorescein permeability Pe) stood at 0.12 ± 0.001 ×10⁻⁶ cm/s; in data set [1] (IMR90-4 iPSC-derived BMECs co-cultured with NPC-derived astrocytes and neurons, read-out: sodium fluorescein permeability Pe), 0.2 ± 0.1 ×10⁻⁶ cm/s; in data set [1] (IMR90-4 iPSC-derived BMECs co-cultured with primary rat astrocytes, read-out: sodium fluorescein permeability Pe), 0.19 ± 0.01 ×10⁻⁶ cm/s; in data set [1] (isogenic co-culture: CS03iCTRn2-derived BMECs with neurons:astrocytes (1:3), read-out: fluorescein permeability Pe), 0.062 ± 0.011 ×10⁻⁶ cm/s; in data set [1] (monocultured CS03iCTRn2-derived BMECs, read-out: fluorescein permeability Pe) it was 0.81 ± 0.09 ×10⁻⁶ cm/s; in data set [1] (monocultured IMR90-4 iPSC-derived BMECs, read-out: sodium fluorescein permeability Pe), 0.48 ± 0.03 ×10⁻⁶ cm/s. Further, in the data set with iPSC-derived BMECs, the “decrease of fluorescein permeability, isogenic co-culture compared to monoculture” value worked out at 13 fold.

For the origin of these results see patent US11840708B2, “Isogenic blood-brain barrier model” (Wisconsin Alumni Research Foundation, priority 2016, dated 2023).
